Literature values, collected in patent US20070128260A1, “Aqueous polymer dispersions for stabilizing actives” (priority 2005, published 2007).
Structures can show the parent of a compound that is named as a salt. Where two headings read alike, the source gives them in different places.

Row | water sol. (25° C.) [mg/mL] | SMILES | other results
1 | 0.31 | CC(C)CN(C[C@@H](OP(=O)(O)O)[C@H](Cc1ccccc1)NC(=O)O[C@H]1CCOC1)S(=O)(=O)c1ccc(N)cc1 [fosamprenavir] | –
2 | 20.1 | Cc1cn([C@H]2C[C@H](N=[N+]=[N-])[C@@H](CO)O2)c(=O)[nH]c1=O [Zidovudine] | –
3 | 77 | Nc1nc(NC2CC2)c2ncn([C@H]3C=C[C@@H](CO)C3)c2n1 [Abacavir sulfate] | –

The remaining lines, values behind:

Row | SMILES | water sol. (25° C.) [mg/mL] | other results
4 | Nc1nc2c(ncn2COCCO)c(=O)[nH]1 [Acylovir] | – | water sol. (37° C.): 2.5 mg/mL
5 | CC(C)CN(C[C@@H](O)[C@H](Cc1ccccc1)NC(=O)O[C@H]1CCOC1)S(=O)(=O)c1ccc(N)cc1 [Amprenavir] | 0.04 | –
6 | Nc1ccn([C@@H]2CS[C@H](CO)O2)c(=O)n1 [Lamivudine] | – | water sol. (20° C.): 70 mg/mL
7 | CC(=O)N[C@H]1[C@H]([C@H](O)[C@H](O)CO)OC(C(=O)O)=C[C@@H]1N=C(N)N [Zanamivir] | – | water sol. (20° C.): 18 mg/mL
8 | CC(C)[C@H](N)C(=O)OCCOCn1cnc2c(=O)[nH]c(N)nc21 [valacyclovir] | 174 | –
